# Experimental data published in US20060100146A1, “AWAT-related methods and articles” (priority 2004, published 2006).
# Several values for one entry are separate records, joined by “and”; a condition that tells them apart may be missing. Identical values can stand only once.
# T1: human AWAT1 (DGA2) (Homo sapiens, UniProt Q58HT5)
# T1 construct: The full length DGA2 was sub cloned into the EcoRI and NotI sites of the pRS423-GP vector; made in house; host or cells: Saccharomyces cerevisiae SCY2056 (dga1Δ lro1Δ are2), galactose-inducible pRS423-GP vector; microsomes used
# T1 sequence (Q58HT5 1-328): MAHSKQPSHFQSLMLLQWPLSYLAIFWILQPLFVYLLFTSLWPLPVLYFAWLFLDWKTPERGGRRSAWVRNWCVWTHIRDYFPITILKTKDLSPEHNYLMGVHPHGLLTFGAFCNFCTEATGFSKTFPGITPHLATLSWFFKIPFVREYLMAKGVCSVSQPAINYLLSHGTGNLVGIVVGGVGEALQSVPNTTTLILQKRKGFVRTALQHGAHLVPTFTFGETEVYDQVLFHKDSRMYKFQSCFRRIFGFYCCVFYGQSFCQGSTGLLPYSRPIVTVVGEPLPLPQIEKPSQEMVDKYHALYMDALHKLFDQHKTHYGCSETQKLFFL
# T2: human AWAT2 (hDC4) (Homo sapiens, UniProt Q6E213)
# T2 construct: The full-length hDC4 was then sub cloned into the EcoRI site of the pRS423-GP vector; made in house; host or cells: Saccharomyces cerevisiae SCY2056 (dga1Δ lro1Δ are2), galactose-inducible pRS423-GP vector; microsomes used
# T2 sequence (Q6E213 1-333): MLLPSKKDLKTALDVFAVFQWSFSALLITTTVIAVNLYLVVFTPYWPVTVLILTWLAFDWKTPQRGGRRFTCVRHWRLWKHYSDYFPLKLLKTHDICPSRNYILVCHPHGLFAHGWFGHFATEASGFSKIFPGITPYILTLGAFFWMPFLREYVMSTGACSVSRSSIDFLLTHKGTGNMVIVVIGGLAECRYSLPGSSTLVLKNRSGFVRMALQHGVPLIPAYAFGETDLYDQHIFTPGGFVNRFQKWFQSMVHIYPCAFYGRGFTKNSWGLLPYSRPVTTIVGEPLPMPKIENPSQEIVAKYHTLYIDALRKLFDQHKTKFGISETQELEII
# Columns and labels:
# human AWAT1 (DGA2) = target: T1, human AWAT1 (DGA2); assay: In vitro AWAT substrate specificity assay, AWAT1 microsomes; assay type: biochemical; details: for Activity of AWAT1 (DGA2) towards various wax alcohols / Activity of AWAT1 (DGA2) towards various acyl-CoAs: 20 μg microsomes, wax ester formed, vector control removed, mean +/- Std. dev., triplicate; for Activity of AWAT1 (DGA2) towards various wax alcohols: [14C]oleoyl-CoA as acyl donor; for Activity of AWAT1 (DGA2) towards various acyl-CoAs: [14C]cetyl alcohol as acyl acceptor
# Method: (§1) Acyl-CoA wax alcohol acyltransferase (AWAT) assays were performed as above with the following exceptions: 200 μM cetyl alcohol (unlabeled or [^14C]-labeled 10,000 dpm/nmol) was substituted for DAG, oleoyloleate was used as carrier, and reactions were incubated for 20 min in a final volume of 250 μl. After separation by TLC, the spot corresponding to wax ester was cut out and counted. For alcohol and acyl-CoA substrate specificity studies, microsomal preparations from DGA2 (20 μg) and hDC4 (10 μg) were used. Kill reactions and vector controls were included for all experiments. The various wax alcohols and acyl-Co A's were substituted for cetyl alcohol or oleoyl Co A at the concentrations specified above. Activity is presented as pmol/min/mg protein.
# (§2) In vitro AWAT assays were performed using microsomal preparations from TG null yeast strains transformed with human AWAT1 (DGA2), AWAT2 (hDC4) or a vector control harboring no insert. AWAT1 (20 μg) and AWAT2 (10 μg) microsomes were assayed as described under Experimental Procedures. Activity is in pmol of wax ester formed per min/mg protein, expressed as a mean±Std. dev. from a representative experiment performed in triplicate. Vector control background has been removed. In vitro determination of alcohol and acyl-CoA substrate specificities were performed with [^14C]oleoyl-CoA and the indicated alcohols or [^14C]cetyl alcohol and the indicated acyl-CoA donors (Table 3A and 3B, respectively). Kill reactions were included for all experiments.
# human AWAT2 (hDC4) = target: T2, human AWAT2 (hDC4); assay: In vitro AWAT substrate specificity assay, AWAT2 microsomes; assay type: biochemical; details: for Activity of AWAT2 (hDC4) towards various wax alcohols / Activity of AWAT2 (hDC4) towards various acyl-CoAs: 10 μg microsomes, wax ester formed, vector control removed, mean +/- Std. dev., triplicate; for Activity of AWAT2 (hDC4) towards various wax alcohols: [14C]oleoyl-CoA as acyl donor; for Activity of AWAT2 (hDC4) towards various acyl-CoAs: [14C]cetyl alcohol as acyl acceptor
# Method: as §1, §2
# [1] = system: TAG formation from dioleoylglycerol and [14C]oleoyl-CoA; assay: In vitro DGAT (diacylglycerol esterification) assay in yeast microsomes; assay type: biochemical; details: microsomes from TG-null yeast expressing the human enzyme; dioleoylglycerol + [14C]oleoyl-CoA; TAG formed; vector control subtracted; mean +/- Std. dev., 3 replicate experiments
# Method: (§3) A dilute inoculation of each strain into 500 mL of SC-His+2% galactose+1% raffinose was grown overnight at 30° C. into log phase. Cells were washed and lysed, and microsomes were prepared from a 100,000 g spin, as previously described (39). Protein concentrations were determined (40) and diacylglycerol esterification assays were performed as described previously (17,19,41). In brief, microsomes (100 μg) were preincubated for 5 min at 37° in 100 mM TRIS, pH 7.5 containing 0.25 M sucrose, 1 mM EDTA, 10 mM MgCl2, 20 μM fatty acid free BSA, 160 μM dioleoylglycerol (in 5 μl acetone, final volume 200 μl). The reaction was initiated by the addition of [^14C]oleoyl-CoA (10-20,000 dpm/nmol, 40 μM) and stopped after 10 min by the addition of 4 ml of chloroform:methanol (2:1 v/v). Carrier TAG (10 μg) and internal standard ([^3H]triolein, 30,000 dpm) were added followed by 0.8 ml water to separate phases. The lower chloroform layer containing the lipids was removed, evaporated to dryness, resuspended in 50 μl chloroform and individual lipid classes separated on Varian chromatography paper using a hexane:diethyl ether:acetic acid (170:30:1 v/v) mobile phase. The spot corresponding to TG was cut out and counted.
# (§4) Microsomes from TG-null yeast strains transformed with human DGAT2, DGA2, hDC3, or hDC4 were incubated in the presence of dioleoylglycerol or cetyl alcohol and [^14C]oleoyl-CoA and assayed for esterification as described in Experimental Procedures. Data are expressed as pmol of neutral lipid (TAG or Wax ester) formed per min/mg protein as a mean±Std. dev. DGAT activities are from 3 replicate experiments and AWAT activities are from a representative experiment performed in triplicate. Background levels to the assay from strains transformed with vector control have been subtracted.
# [2] = system: wax ester formation from cetyl alcohol and oleoyl-CoA; assay: In vitro AWAT (acyl-CoA wax alcohol acyltransferase) assay in yeast microsomes; assay type: biochemical, human
# Method: as §3, §1, §4
# [3] = [14C]cetyl alcohol rather than radiolabeled oleoyl CoA as monitor of ester formation
# [4] = microsomes from TG-null yeast expressing the human enzyme, cetyl alcohol + [14C]oleoyl-CoA, wax ester formed, vector control subtracted, mean +/- Std. dev., triplicate
Molecule,Activity of AWAT1 (DGA2) towards various wax alcohols (human AWAT1 (DGA2)),Activity of AWAT2 (hDC4) towards various wax alcohols (human AWAT2 (hDC4)),Activity of AWAT1 (DGA2) towards various acyl-CoAs (human AWAT1 (DGA2)),Activity of AWAT2 (hDC4) towards various acyl-CoAs (human AWAT2 (hDC4)),further results
"CCCCCCCCCCCCCCCCCCCCO [Arachidyl C-20, arachidyl alcohol]",22 +/− 4 pmol/min/mg protein,27 +/− 4 pmol/min/mg protein,,,Utilization by AWAT1 relative to decyl alcohol (human AWAT1 (DGA2); oleoyl CoA as acyl donor): about 5%
"CCCCCCCCCCCCCCCCO [Cetyl (Palmityl) C-16, cetyl alcohol]",83 +/− 6 pmol/min/mg protein,665 +/− 54 pmol/min/mg protein,,,
"CCCCCCCCCCO [Decyl C-10, decyl alcohol]",419 +/− 180 pmol/min/mg protein,−50 +/− 277 pmol/min/mg protein,,,AWAT2 activity using the alcohol (in words) (human AWAT2 (hDC4); oleoyl CoA as acyl donor): no activity
"CCCCCCCC/C=C\CCCCCCCC(=O)SCCNC(=O)CCNC(=O)[C@H](O)C(C)(C)COP(=O)(O)OP(=O)(O)OC[C@H]1O[C@@H](n2cnc3c(N)ncnc32)[C@H](O)[C@@H]1OP(=O)(O)O [Oleoyl C-18:1, oleoyl CoA]",,,113 +/− 7 pmol/min/mg protein,1232 +/− 349 pmol/min/mg protein,Utilization by AWAT1 relative to stearoyl CoA (C18:0) (human AWAT1 (DGA2); cetyl alcohol as acyl acceptor): 20%
CCCCCCCC/C=C\CCCCCCCCO [Oleyl C-18:1],247 +/− 23 pmol/min/mg protein,892 +/− 106 pmol/min/mg protein,,,
"CCCCCC/C=C\CCCCCCCC(=O)SCCNC(=O)CCNC(=O)[C@H](O)C(C)(C)COP(=O)(O)OP(=O)(O)OC[C@H]1O[C@@H](n2cnc3c(N)ncnc32)[C@H](O)[C@@H]1OP(=O)(O)O [Palmitoleoyl C-16:1, palmitoleoyl CoA]",,,−20 +/− 25 pmol/min/mg protein,1125 +/− 220 pmol/min/mg protein,AWAT1 activity using the acyl-CoA (in words) (human AWAT1 (DGA2); cetyl alcohol as acyl acceptor): no activity
CCCCCC/C=C\CCCCCCCCO [Palmitoleyl C-16:1],184 +/− 29 pmol/min/mg protein,582 +/− 117 pmol/min/mg protein,,,
CCCCCCCCCCCCCCCC(=O)SCCNC(=O)CCNC(=O)[C@H](O)C(C)(C)COP(=O)(O)OP(=O)(O)OC[C@H]1O[C@@H](n2cnc3c(N)ncnc32)[C@H](O)[C@@H]1OP(=O)(O)O [Palmitoyl C-16],,,390 +/− 121 pmol/min/mg protein,524 +/− 164 pmol/min/mg protein,
"CCCCCCCCCCCCCCCCCC(=O)SCCNC(=O)CCNC(=O)[C@H](O)C(C)(C)COP(=O)(O)OP(=O)(O)OC[C@H]1O[C@@H](n2cnc3c(N)ncnc32)[C@H](O)[C@@H]1OP(=O)(O)O [Stearoyl C-18, stearoyl CoA]",,,656 +/− 39 pmol/min/mg protein,549 +/− 38 pmol/min/mg protein,
CCCCCCCCCCCCCCCCCCO [Stearyl C-18],27 +/− 5 pmol/min/mg protein,138 +/− 24 pmol/min/mg protein,,,
"hDC4: acyl-CoA wax alcohol acyltransferase 2, synonym human DGAT candidate gene 4; human enzyme expressed in yeast microsomes (protein, UniProt Q6E213 1-333, looked up, yeast microsomes, acyl-CoA wax alcohol acyltransferase 2, synonym human DGAT candidate gene 4; human enzyme expressed in yeast microsomes) Acyl-CoA wax alcohol …: MLLPSKKDLKTALDVFAVFQWSFSALLITTTVIAVNLYLVVFTPYWPVTVLILTWLAFDWKTPQRGGRRFTCVRHWRLWKHYSDYFPLKLLKTHDICPSRNYILVCHPHGLFAHGWFGHFATEASGFSKIFPGITPYILTLGAFFWMPFLREYVMSTGACSVSRSSIDFLLTHKGTGNMVIVVIGGLAECRYSLPGSSTLVLKNRSGFVRMALQHGVPLIPAYAFGETDLYDQHIFTPGGFVNRFQKWFQSMVHIYPCAFYGRGFTKNSWGLLPYSRPVTTIVGEPLPMPKIENPSQEIVAKYHTLYIDALRKLFDQHKTKFGISETQELEII",,,,,"DGAT Activity [1]: 11.4 +/− 3.4 pmol/min/mg protein; AWAT Activity [2, 3]: 1232 pmol/min/mg; AWAT Activity [2, 4]: 1066 pmol/min/mg protein and 1066 +/− 18.6 pmol/min/mg protein"
"DGAT2: human diacylglycerol acyltransferase 2, expressed in TG-null yeast; microsomes assayed (protein, UniProt Q96PD7 1-388, looked up, yeast microsomes, human diacylglycerol acyltransferase 2, expressed in TG-null yeast; microsomes assayed) Diacylglycerol …: MKTLIAAYSGVLRGERQAEADRSQRSHGGPALSREGSGRWGTGSSILSALQDLFSVTWLNRSKVEKQLQVISVLQWVLSFLVLGVACSAILMYIFCTDCWLIAVLYFTWLVFDWNTPKKGGRRSQWVRNWAVWRYFRDYFPIQLVKTHNLLTTRNYIFGYHPHGIMGLGAFCNFSTEATEVSKKFPGIRPYLATLAGNFRMPVLREYLMSGGICPVSRDTIDYLLSKNGSGNAIIIVVGGAAESLSSMPGKNAVTLRNRKGFVKLALRHGADLVPIYSFGENEVYKQVIFEEGSWGRWVQKKFQKYIGFAPCIFHGRGLFSSDTWGLVPYSKPITTVVGEPITIPKLEHPTQQDIDLYHTMYMEALVKLFDKHKTKFGLPETEVLEVN",,,,,"DGAT Activity [1]: 65.4 pmol/min/mg protein and 65.4 +/− 3.4 pmol/min/mg protein; AWAT Activity [2, 4]: −11.5 +/− 1.3 pmol/min/mg protein"
"DGA2: acyl-CoA wax alcohol acyltransferase 1, synonym diacyl-glycerol acyltransferase 2; human enzyme expressed in yeast microsomes (protein, UniProt Q58HT5 1-328, looked up, yeast microsomes, acyl-CoA wax alcohol acyltransferase 1, synonym diacyl-glycerol acyltransferase 2; human enzyme expressed in yeast microsomes) Acyl-CoA wax alcohol …: MAHSKQPSHFQSLMLLQWPLSYLAIFWILQPLFVYLLFTSLWPLPVLYFAWLFLDWKTPERGGRRSAWVRNWCVWTHIRDYFPITILKTKDLSPEHNYLMGVHPHGLLTFGAFCNFCTEATGFSKTFPGITPHLATLSWFFKIPFVREYLMAKGVCSVSQPAINYLLSHGTGNLVGIVVGGVGEALQSVPNTTTLILQKRKGFVRTALQHGAHLVPTFTFGETEVYDQVLFHKDSRMYKFQSCFRRIFGFYCCVFYGQSFCQGSTGLLPYSRPIVTVVGEPLPLPQIEKPSQEMVDKYHALYMDALHKLFDQHKTHYGCSETQKLFFL",,,,,"DGAT Activity [1]: 7.8 +/− 3.2 pmol/min/mg protein; AWAT Activity [2, 3]: 113 pmol/min/mg; AWAT Activity [2, 4]: 31.7 pmol/min/mg protein and 31.7 +/− 17.4 pmol/min/mg protein"
